Experimental data taken from PMC8617031, “Development of a BCL-xL and BCL-2 dual degrader with improved anti-leukemic activity,” (Nature Communications, 2021).
Several values for one entry are separate records, joined by “and”; a condition that tells them apart may be missing. Equal entries are not always repeated. Where two headings read alike, the source gives them in different places.

Experiments:
His-tagged BCL-2 = target: T1, His-tagged BCL-2 (Homo sapiens, UniProt P10415); assay: AlphaScreen competitive binary binding, BCL-2 (biotin-BIM peptide); details: for Alpha signal normalised to Maximum/Minimum (inhibition): in % (unit assumed)
T1 construct: purchased Sigma-Aldrich SRP0186
T1 sequence (P10415 whole entry): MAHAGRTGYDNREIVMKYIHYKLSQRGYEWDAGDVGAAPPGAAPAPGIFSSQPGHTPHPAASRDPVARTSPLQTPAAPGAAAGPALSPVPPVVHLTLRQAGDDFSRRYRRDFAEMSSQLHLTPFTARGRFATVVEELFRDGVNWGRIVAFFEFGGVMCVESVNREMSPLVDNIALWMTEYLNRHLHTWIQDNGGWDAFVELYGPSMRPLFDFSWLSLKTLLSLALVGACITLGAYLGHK
Method: The reagents were diluted in a buffer containing 250 mM HEPES pH 7.5, 1 M NaCl, 1% BSA, and 0.05% Tween-80. His-tagged BCL-xL (0.5 nM, Cat. No. SRP0187, Sigma-Aldrich) or BCL-2 (1 nM, Cat. No. SRP0186, Sigma-Aldrich) were incubated with serial diluted 753a or 753b and 2 nM biotin-tagged BAD (biotin-[…] amino-terminal, AnaSpec, for BCL-xL) or 10 nM BIM peptides (biotin-[…] N-terminal, AnaSpec, for BCL-2) to a final volume of 40 µl in a 96-well PCR plate. […] After incubation for 2 h, 5 µl 6× His-acceptor beads (Cat. No. AL128M, PerkinElmer) were added to each well at 20 µg/ml final concentration and incubated for 1 h. Then 5 µl streptavidin-donor beads were added (Cat. No. 6760002, PerkinElmer) to each well at 20 µg/ml final concentration and incubated for 45 min. At the end of the incubation period, 17 µl of each sample was transferred in adjacent wells of 384-well proxy plate (Cat. No. 6008280, PerkinElmer). The plate was scanned using the Alpha program on Biotek’s Synergy Neo2 multimode plate reader. The inhibition constant (Ki) was calculated using the non-linear regression, one site, competitive binding, Fit Ki function on GraphPad Prism 9 software, based on experimentally determined dissociation constant (Kd) for each protein–peptide pair.

Kasumi-1 cells = assay: Viability (MTS) of Kasumi-1 AML cells; type: cell-based, human; details: for viability at 0.0411523 µM / viability at 0.37037 µM / viability at 1.11111 µM / viability at 3.33333 µM / viability at 10 µM / viability at […] / IC50: Homo sapiens; for viability at 0.0411523 µM: Kasumi 1, Concentration 0.0411523 uM; for viability at 0.0411523 µM / viability at 0.37037 µM / viability at 1.11111 µM / viability at 3.33333 µM / viability at 10 µM / viability at […]: Supplementary Fig. 12b; for viability at 0.37037 µM: Kasumi 1, Concentration 0.37037 uM; for viability at 1.11111 µM: Kasumi 1, Concentration 1.11111 uM; for viability at 3.33333 µM: Kasumi 1, Concentration 3.33333 uM; for viability at 10 µM: Kasumi 1, Concentration 10 uM; for viability at […]: Kasumi 1, Concentration […]; for IC50: Kasumi 1, 72 h
293T cells = assay: Viability (MTS) of 293T cells; type: cell-based, human; details: normalised to own plate; for 293T cell viability, MTS absorbance 490 as percent of untreated control, mean of three wells: mean of 3 wells
Method: Suspension cells were treated 30 min after seeding, whereas adherent cells were allowed to adhere overnight and were then treated. Compound treatments were prepared in complete cell culture medium and 100 µl of 2× treatment-containing medium were added to each well. Complete cell culture medium without treatment was added in control wells, and wells containing medium without cells served as background. The outer wells of the 96-well plate were not used for treatment and were filled with 250 µl of PBS to reduce evaporation of medium from inner wells. Each compound and/or combination was tested at nine different concentrations with three replicates. The cell viability was measured after 72 h by tetrazolium-based MTS assay. MTS reagent (2 mg ml^–1 stock; cat. no. G1111, Promega) was freshly supplemented with phenazine methosulfate (PMS, 0.92 mg ml^–1 stock, cat. no. P9625, Sigma-Aldrich) in 20:1 ratio, and 20 µl of this mixture was added to each control and treatment well. The cells were incubated for 4 h at 37 °C and 5% CO2, and then the absorbance was recorded at 490 nm using Biotek’s Synergy Neo2 multimode plate reader (Biotek). The average absorbance value of background wells was subtracted from absorbance value of each control and treatment well, and percent cell viability ((At/A0) × 100)) was determined in each treatment well, where At is the absorbance value of the treatment well and A0 is the average absorbance value of control wells after background subtraction. The data were expressed as average percentage cell viability and fitted in non-linear regression curves using GraphPad Prism 7 (GraphPad Software, La Jolla, CA, USA).

[1] = Average of 3 wells, read-out: MTS viability, percent of 0 uM control, Average
[2] = single well, read-out: MTS viability, corrected absorbance 490 as percent of 0 uM control

With `CC1(C)CCC(c2ccc(Cl)cc2)=C(CN2CCN(c3ccc(C(=O)NS(=O)(=O)c4ccc(N[C@H](CCN5CCOCC5)CSc5ccccc5)c(S(=O)(=O)C(F)(F)F)c4)cc3)CC2)C1` [ABT263, navitoclax] the “Alpha signal normalised to Maximum/Minimum (inhibition)” value (His-tagged BCL-2; BCL-2 Rep-1, 5 uM, 5 µM) was 98.7813, the inhibition at 5 µM (His-tagged BCL-2; BCL-2 Rep-1, 5 uM, read-out: Alpha signal normalised to Maximum/Minimum (inhibition)) was 99% and the “Alpha signal (raw counts)” value (His-tagged BCL-2; BCL-2 Rep-2, 0.00488281 uM) was 125701 and 136831. The “Alpha signal normalised to Maximum/Minimum (inhibition)” value (His-tagged BCL-2; BCL-2 Rep-2, 0.0195312 uM, 0.0195312 µM) was 98.383, the inhibition at 0.0195312 µM (His-tagged BCL-2; BCL-2 Rep-2, 0.0195312 uM, read-out: Alpha signal normalised to Maximum/Minimum (inhibition)) was 98.1% and the “Alpha signal normalised to Maximum/Minimum (inhibition)” value (His-tagged BCL-2; BCL-2 Rep-2, 0.078125 uM, 0.078125 µM) was 99.1744. For the same compound, the inhibition at 0.078125 µM (His-tagged BCL-2; BCL-2 Rep-2, 0.078125 uM, read-out: Alpha signal normalised to Maximum/Minimum (inhibition)) was 98.7%, the “Alpha signal normalised to Maximum/Minimum (inhibition)” value (His-tagged BCL-2; BCL-2 Rep-2, 0.3125 uM, 0.3125 µM) was 99.3426 and the inhibition at 0.3125 µM (His-tagged BCL-2; BCL-2 Rep-2, 0.3125 uM, read-out: Alpha signal normalised to Maximum/Minimum (inhibition)) was 98.9%. For the same compound, the “Alpha signal normalised to Maximum/Minimum (inhibition)” value (His-tagged BCL-2; BCL-2 Rep-2, 1.25 uM, 1.25 µM) was 99.8148, the inhibition at 1.25 µM (His-tagged BCL-2; BCL-2 Rep-2, 1.25 uM, read-out: Alpha signal normalised to Maximum/Minimum (inhibition)) was 97.9% and the “Alpha signal normalised to Maximum/Minimum (inhibition)” value (His-tagged BCL-2; BCL-2 Rep-2, 5 uM, 5 µM) was 100.138. The inhibition at 5 µM (His-tagged BCL-2; BCL-2 Rep-2, 5 uM, read-out: Alpha signal normalised to Maximum/Minimum (inhibition)) was 98%, the “Alpha signal (raw counts)” value (His-tagged BCL-2; BCL-2 Rep-2, plate row C, 1.25 uM) was 32515 and 16642 and the “Alpha signal (raw counts)” value (His-tagged BCL-2; BCL-2 Rep-2, plate row D, 0.3125 uM) was 24362 and 20560. The “Alpha signal (raw counts)” value (His-tagged BCL-2; BCL-2 Rep-2, plate row E, 0.078125 uM) was 25987 and 21955, the “Alpha signal (raw counts)” value (His-tagged BCL-2; BCL-2 Rep-2, plate row F, 0.0195312 uM) was 31255 and 28520 and the “Alpha signal (raw counts)” value (His-tagged BCL-2; BCL-2 Rep-2, plate row H, 0.0012207 uM) was 409647 and 386712. For the same compound, the “Alpha signal (raw counts)” value (His-tagged BCL-2; BCL-2 Rep-2, plate row I, 0.000305176 uM) was 513586 and 565907, the “Alpha signal (raw counts)” value (His-tagged BCL-2; BCL-2 Rep-2, plate row J, 7.62939e-5 uM) was 711623 and 736033 and the “Alpha signal (raw counts)” value (His-tagged BCL-2; BCL-2 Rep-2, plate row K, 1.90735e-5 uM) was 598210 and 675191. For the same compound, the “Luminescence (raw plate reading)” value (Kasumi-1 cells; 3.90625 nM (plate column 2), Fig. 7a) was 652130 and 630259 and 658966 and 744397, the “Luminescence (raw plate reading)” value (Kasumi-1 cells; 7.8125 nM (plate column 3), Fig. 7a) was 632892 and 633903 and 634701 and 712997 and the “Luminescence (raw plate reading)” value (Kasumi-1 cells; 15.625 nM (plate column 4), Fig. 7a) was 642408 and 622919 and 622003 and 704279. For the same compound, the “Luminescence (raw plate reading)” value (Kasumi-1 cells; 31.25 nM (plate column 5), Fig. 7a) was 622577 and 612176 and 601421 and 652847, the “Luminescence (raw plate reading)” value (Kasumi-1 cells; 62.5 nM (plate column 6), Fig. 7a) was 542999 and 553178 and 531814 and 597127 and the “Luminescence (raw plate reading)” value (Kasumi-1 cells; 125 nM (plate column 7), Fig. 7a) was 381320 and 423693 and 412676 and 432347. For the same compound, the “Luminescence (raw plate reading)” value (Kasumi-1 cells; 250 nM (plate column 8), Fig. 7a) was 247450 and 230935 and 221189 and 256346, the “Luminescence (raw plate reading)” value (Kasumi-1 cells; 500 nM (plate column 9), Fig. 7a) was 119937 and 119731 and 112901 and 107498 and the “Luminescence (raw plate reading)” value (Kasumi-1 cells; 1000 nM (plate column 10), Fig. 7a) was 56843 and 48094 and 45547 and 41795. The “Luminescence (raw plate reading)” value (Kasumi-1 cells; 2000 nM = 2U (plate column 11), Fig. 7a) was 20891 and 18712 and 20895 and 17813, the “Luminescence (raw plate reading)” value (Kasumi-1 cells; 4000 nM = 4U (plate column 12), Fig. 7a) was 11066 and 13361 and 10294 and 10997 and the “Luminescence normalised to mean of the 0 concentration wells (= 100), viability” value (shortened to “Luminescence normalised to mean”) (Kasumi-1 cells; 3.90625 (nM), Fig. 7a) was 95.2795 and 92.0841 and 96.2783 and 108.76. For the same compound, the “Luminescence normalised to mean” value (Kasumi-1 cells; 7.8125 (nM), Fig. 7a) was 92.4688 and 92.6165 and 92.7331 and 104.173, the “Luminescence normalised to mean” value (Kasumi-1 cells; 15.625 (nM), Fig. 7a) was 93.8591 and 91.0117 and 90.8778 and 102.899 and the “Luminescence normalised to mean” value (Kasumi-1 cells; 31.25 (nM), Fig. 7a) was 90.9617 and 89.442 and 87.8707 and 95.3843. For the same compound, the “Luminescence normalised to mean” value (Kasumi-1 cells; 62.5 (nM), Fig. 7a) was 79.3349 and 80.8221 and 77.7007 and 87.2433, the “Luminescence normalised to mean” value (Kasumi-1 cells; 125 (nM), Fig. 7a) was 55.7128 and 61.9037 and 60.2941 and 63.1681 and the “Luminescence normalised to mean” value (Kasumi-1 cells; 250 (nM), Fig. 7a) was 36.1537 and 33.7408 and 32.3168 and 37.4535. For the same compound, the “Luminescence normalised to mean” value (Kasumi-1 cells; 500 (nM), Fig. 7a) was 17.5234 and 17.4933 and 16.4954 and 15.706, the “Luminescence normalised to mean” value (Kasumi-1 cells; 1000 (nM), Fig. 7a) was 8.305 and 7.027 and 6.655 and 6.106 and the “Luminescence normalised to mean” value (Kasumi-1 cells; 2000 (nM, 2U), Fig. 7a) was 3.052 and 2.734 and 3.053 and 2.603. The “Luminescence normalised to mean” value (Kasumi-1 cells; 4000 (nM, 4U), Fig. 7a) was 1.6168 and 1.952 and 1.504 and 1.607, the viability at 0.0411523 µM (Kasumi-1 cells; [1]) was 92.4% and the viability at 0.0411523 µM (Kasumi-1 cells; [2]) was 91%. For the same compound, the viability at 0.37037 µM (Kasumi-1 cells; [1]) was 20.7%, the viability at 0.37037 µM (Kasumi-1 cells; [2]) was 21.4% and the viability at 1.11111 µM (Kasumi-1 cells; [1]) was 18%. The viability at 1.11111 µM (Kasumi-1 cells; [2]) was 16.5%, the viability at 3.33333 µM (Kasumi-1 cells; [1]) was 13.1% and the viability at 3.33333 µM (Kasumi-1 cells; [2]) was 13.4%. It also gave a viability at 10 µM (Kasumi-1 cells; [1]) of 12.1%, a viability at 10 µM (Kasumi-1 cells; [2]) of 12.3% and a viability at […] (Kasumi-1 cells; [1]) of 78.8%. The viability at […] (Kasumi-1 cells; [2]) was 78.2%, the IC50 (Kasumi-1 cells; Fig. 7a, read-out: IC50, viability of Kasumi-1 AML cells) was 156 nM and the IC50 (Kasumi-1 cells; Fig. 7c, read-out: IC50, viability of Kasumi-1 cells) was 131 nM. The “293T cell viability, MTS absorbance 490 as percent of untreated control, mean of three wells” value (293T cells; 0.00137174 uM) was 97.7794, the “293T cell viability, MTS absorbance 490 as percent of untreated control, single replicate well” value (293T cells; 0.00137174 uM) was 98.6099 and 98.5015 and the “293T cell viability, MTS absorbance 490 as percent of untreated control, mean of three wells” value (293T cells; 0.00411523 uM) was 103.484. For the same compound, the “293T cell viability, MTS absorbance 490 as percent of untreated control, single replicate well” value (293T cells; 0.00411523 uM) was 107.709 and 108.359, the “293T cell viability, MTS absorbance 490 as percent of untreated control, single replicate well” value (293T cells; 0.037037 uM) was 116.375 and 110.092 and the “293T cell viability, MTS absorbance 490 as percent of untreated control, single replicate well” value (293T cells; 0.111111 uM) was 96.1184 and 122.874 and 120.166. For the same compound, the “293T cell viability, MTS absorbance 490 as percent of untreated control, single replicate well” value (293T cells; 0.333333 uM) was 101.968 and 111.934, the “293T cell viability, MTS absorbance 490 as percent of untreated control, single replicate well” value (293T cells; 1 uM) was 97.2017 and 104.893 and the “293T cell viability, MTS absorbance 490 as percent of untreated control, single replicate well” value (293T cells; 3 uM) was 60.8052 and 61.6718.
